Measurements taken from PubChem BioAssay (NCI).
Where “and” joins values, the source holds several entries; their conditions need not be identical. Identical values can stand only once.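 The compound was tested at five concentrations on cells cultured in 96-well plates, with a 48-hour exposure period. GI50 marks 50% less growth. The concentration for full growth arrest is given as TGI.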

Assays:
Assay in all cases: inhibition of tumour cell growth, NCI panel, 48 h
COLO 205 colon = tested on: COLO 205 colon
SK-OV-3 ovarian = tested on: SK-OV-3 ovarian
SNB-75 CNS = tested on: SNB-75 CNS
NCI/ADR-RES ovarian = tested on: NCI/ADR-RES ovarian
ACHN renal = tested on: ACHN renal
OVCAR-5 ovarian = tested on: OVCAR-5 ovarian
IGROV1 ovarian = tested on: IGROV1 ovarian
DU-145 prostate = tested on: DU-145 prostate
HCT-116 colon = tested on: HCT-116 colon
RPMI-8226 leukemia = tested on: RPMI-8226 leukemia

Row | SMILES | GI50 (COLO 205 colon) | TGI (COLO 205 colon) | GI50 (SK-OV-3 ovarian) | TGI (SK-OV-3 ovarian) | GI50 (SNB-75 CNS) | TGI (SNB-75 CNS) | GI50 (NCI/ADR-RES ovarian) | TGI (NCI/ADR-RES ovarian) | GI50 (ACHN renal) | TGI (ACHN renal) | GI50 (OVCAR-5 ovarian) | TGI (OVCAR-5 ovarian) | GI50 (IGROV1 ovarian) | TGI (IGROV1 ovarian) | GI50 (DU-145 prostate) | TGI (DU-145 prostate) | GI50 (HCT-116 colon) | TGI (HCT-116 colon) | GI50 (RPMI-8226 leukemia) | TGI (RPMI-8226 leukemia)
1 | O=S(=O)(Nc1ccc(Cl)cc1Cl)c1ccc(-c2cnc(C3CC3)o2)cc1 | 1.13 µM | 11.1 µM | 7.1 µM | 99.4 µM | 0.185 µM | 0.75 µM | 0.51 µM | 17.5 µM | 0.639 µM | 21.5 µM | 2.66 µM | > 100 µM | 0.647 µM | > 73.3 µM | 2.6 µM | > 100 µM | 0.431 µM | > 65.4 µM | 0.903 µM | 44.8 µM
2 | CCOC(=O)c1c(-c2ccc(OC)cc2)c(C#N)c2c(C#N)c(N)nn2c1N | 2.8 µM | 9.98 µM | 3.49 µM | 19.1 µM | 1.84 µM | 7.59 µM | 3.57 µM | > 100 µM | 4.02 µM | 48.5 µM | 5.65 µM | > 100 µM | 3.48 µM | > 100 µM | 4.93 µM | > 100 µM | 4.35 µM | 19.4 µM | 2.31 µM | > 100 µM
3 | Cc1ccc(Nc2oc(-c3ccccc3)nc2[P+](c2ccccc2)(c2ccccc2)c2ccccc2)cc1 | 1.33 µM | 3.1 µM | 1.58 µM | 3.69 µM | 1.15 µM | 3.71 µM | 1.48 µM | 3.1 µM | 0.988 µM | 2.76 µM | 1.63 µM | 4.38 µM | 0.889 µM | 2.37 µM | 1.34 µM | 4.16 µM | 0.377 µM | 1.39 µM | 0.243 µM | 0.639 µM
4 | O=[N+]([O-])c1ccc(CI)cc1 | 2 µM | 3.76 µM | 4.53 µM | 15.5 µM | 3.27 µM | 15.5 µM | 3.15 µM | 11.2 µM | 1.96 µM | 4.12 µM | 6.2 µM | 20.4 µM | 4.31 µM | 14.8 µM | 2.78 µM | 7.08 µM | 0.9 µM | 2.95 µM | 2.3 µM | 5.68 µM
5 | C[C@@]12CCC[C@@](C)(C(=O)O)C1CC[C@]13CC(=O)[C@](CO)(C1)[C@@H](O)CC32 (some centres not stated) | > 100 µM | > 100 µM | > 100 µM | > 100 µM | > 100 µM | > 100 µM | > 100 µM | > 100 µM | > 100 µM | > 100 µM | > 100 µM | > 100 µM | > 100 µM | > 100 µM | > 100 µM | > 100 µM | > 100 µM | > 100 µM | > 100 µM | > 100 µM
6 | O=C1c2cccc3cccc(c23)C(=O)N1CCCCCN1CCN(CCCCCOc2ccc(-c3nc4ccc(N5CCOCC5)cc4[nH]3)cc2)CC1 | 13.1 µM | 28.7 µM | > 100 µM | > 100 µM | 18.3 µM | 34.6 µM | 8.7 µM | > 60.2 µM | > 35.7 µM | > 56.1 µM | > 100 µM | > 100 µM | 1.76 µM | 8.08 µM | 14.7 µM | 27.8 µM | 5.06 µM | > 100 µM | 0.787 µM | 3.72 µM
7 | COc1ccc2c(c1)c[n+](C)c1c3cc(OC)c(OC)cc3ccc21 |  | 3.5 µM and 2.99 µM |  | 29.4 µM | 6.66 µM | 20 µM |  | > 100 µM | 2.42 µM and 9.86 µM | 5.01 µM and 23.8 µM | 1.52 µM and 11.8 µM | 5.17 µM and 25 µM | 1.39 µM and 4.4 µM | 2.85 µM and 15.8 µM | 3.1 µM and 8.21 µM | 11.4 µM and 21.3 µM | 1.08 µM and 2.48 µM | 2.32 µM and 10 µM |  | 7.28 µM
8 | CC1(Br)Cc2ccccc2C1=O (configuration not stated) |  | 17.5 µM |  | 65.9 µM |  | 27 µM |  | > 100 µM |  | 16.8 µM |  | 14.2 µM |  | 15 µM |  | 33.6 µM | 2.01 µM | 5.02 µM | 3.02 µM | 14.7 µM
9 | CSc1nc(NC2OC(COC(C)=O)C(OC(C)=O)C(OC(C)=O)C2OC(C)=O)c(N=CC=Nc2c(NC3OC(COC(C)=O)C(OC(C)=O)C(OC(C)=O)C3OC(C)=O)nc(SC)n(C)c2=O)c(=O)n1C (configuration not stated) | > 50 µM | > 100 µM | > 50 µM | > 50 µM and 80.1 µM | 8.97 µM | 25.4 µM and 24.3 µM | > 50 µM | > 100 µM | 27.8 µM | 50 µM and > 100 µM | > 50 µM | > 100 µM | > 50 µM | > 100 µM | > 50 µM | > 100 µM | > 50 µM | > 100 µM |  | > 100 µM
10 | COC(=O)C1=CN(CC2=CC(=O)C(C)=CC2=O)C=C(C(=O)OC)C1c1cccc(OC)c1 | 18.4 µM | > 66.6 µM | 20.3 µM | 43.1 µM | 31 µM | > 100 µM | 12.4 µM | 60.2 µM | 2.78 µM | 7.99 µM | 19 µM | 42 µM | 12.8 µM | > 58.1 µM | 16.4 µM | 33.3 µM | 3.63 µM | 11.1 µM | 1.95 µM | 5.06 µM
11 | Cc1ccc2c(C3C(C#N)=C(N)Oc4cc5ccccc5cc43)cc(=O)oc2c1 (configuration not stated) | 2.88 µM | 17.3 µM | 2.04 µM | > 100 µM | 6.89 µM | > 100 µM | 0.833 µM | > 100 µM | 4.54 µM | > 100 µM | 3.76 µM | > 100 µM | 0.983 µM | > 100 µM | 3.79 µM | > 100 µM | 0.531 µM | 32.8 µM | 3.23 µM | 30.2 µM
12 | O=C(O)c1ccc(C(=O)O)c2c(C(=O)O)ccc(C(=O)O)c12 |  | > 100 µM |  | > 100 µM |  | > 100 µM |  | > 100 µM |  | > 100 µM |  | > 100 µM |  | > 100 µM |  | > 100 µM |  | > 100 µM |  | > 100 µM
13 | CC(C)=CCc1cc(O)cc2c1OC(C=C(C)C)C1=C2C(=O)C2=C(C1=O)S(=O)(=O)CCN2 (configuration not stated) | 5.42 µM | > 16.7 µM | 8.06 µM | > 16.7 µM | 2.6 µM | 6.39 µM | > 16.7 µM | > 16.7 µM | 6.14 µM | > 16.7 µM | 4.34 µM | 12.5 µM | 3.23 µM | 9.17 µM | 2.93 µM | 5.37 µM | 2.97 µM | 7.14 µM | 4.16 µM | 12.2 µM
